Measured values reported in PubChem BioAssay (NCI).
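These data come from cells grown in 96-well plates and exposed to compound for 48 hours at five concentrations. TGI marks complete inhibition of growth.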

Columns and labels:
Test in all cases: NCI tumour cell line growth inhibition, 48 h
786-0 renal = system: 786-0 renal
A498 renal = system: A498 renal
A549 NSCLC = system: A549 NSCLC
ACHN renal = system: ACHN renal
CAKI-1 renal = system: CAKI-1 renal
CCRF-CEM leukemia = system: CCRF-CEM leukemia
COLO 205 colon = system: COLO 205 colon
DLD-1 colon = system: DLD-1 colon
DMS 273 small cell lung = system: DMS 273 small cell lung
EKVX NSCLC = system: EKVX NSCLC
HCC-2998 colon = system: HCC-2998 colon
HCT-15 colon = system: HCT-15 colon
HL-60(TB) leukemia = system: HL-60(TB) leukemia
HOP-18 NSCLC = system: HOP-18 NSCLC
HOP-92 NSCLC = system: HOP-92 NSCLC
HT29 colon = system: HT29 colon
IGROV1 ovarian = system: IGROV1 ovarian
K-562 leukemia = system: K-562 leukemia
KM12 colon = system: KM12 colon
KM20L2 colon = system: KM20L2 colon
LOX IMVI melanoma = system: LOX IMVI melanoma
LXFL 529 NSCLC = system: LXFL 529 NSCLC
M14 melanoma = system: M14 melanoma
MALME-3M melanoma = system: MALME-3M melanoma
MOLT-4 leukemia = system: MOLT-4 leukemia
NCI-H226 lung = system: NCI-H226 lung
NCI-H23 lung = system: NCI-H23 lung
NCI-H460 lung = system: NCI-H460 lung
NCI-H522 lung = system: NCI-H522 lung
OVCAR-3 ovarian = system: OVCAR-3 ovarian
OVCAR-4 ovarian = system: OVCAR-4 ovarian
OVCAR-5 ovarian = system: OVCAR-5 ovarian
OVCAR-8 ovarian = system: OVCAR-8 ovarian
RPMI-8226 leukemia = system: RPMI-8226 leukemia
RXF 393 renal = system: RXF 393 renal
RXF-631 renal = system: RXF-631 renal
SF-268 CNS = system: SF-268 CNS
SF-295 CNS = system: SF-295 CNS
SF-539 CNS = system: SF-539 CNS
SK-MEL-2 melanoma = system: SK-MEL-2 melanoma
SK-MEL-28 melanoma = system: SK-MEL-28 melanoma
SK-MEL-5 melanoma = system: SK-MEL-5 melanoma
SK-OV-3 ovarian = system: SK-OV-3 ovarian
SN12C renal = system: SN12C renal
SNB-19 CNS = system: SNB-19 CNS
SNB-75 CNS = system: SNB-75 CNS
SW-620 colon = system: SW-620 colon
TK-10 renal = system: TK-10 renal
U251 CNS = system: U251 CNS
UACC-257 melanoma = system: UACC-257 melanoma
UACC-62 melanoma = system: UACC-62 melanoma
UO-31 renal = system: UO-31 renal
XF 498 CNS = system: XF 498 CNS
DMS 114 small cell lung = system: DMS 114 small cell lung
HCT-116 colon = system: HCT-116 colon
HOP-62 NSCLC = system: HOP-62 NSCLC
M19-MEL melanoma = system: M19-MEL melanoma
SNB-78 CNS = system: SNB-78 CNS
SR leukemia = system: SR leukemia
BT-549 breast = system: BT-549 breast
DU-145 prostate = system: DU-145 prostate
HS 578T breast = system: HS 578T breast
MCF7 breast = system: MCF7 breast
MDA-MB-231 breast = system: MDA-MB-231 breast
MDA-MB-435 = system: MDA-MB-435
MDA-N = system: MDA-N
NCI/ADR-RES ovarian = system: NCI/ADR-RES ovarian
PC-3 prostate = system: PC-3 prostate
T-47D breast = system: T-47D breast

Measured: TGI

CC(NS(=O)(=O)c1ccc([N+](=O)[O-])cc1)C(=O)O (centres undefined)
not listed: DMS 114 small cell lung | HCT-116 colon | HOP-62 NSCLC | M19-MEL melanoma | SNB-78 CNS | SR leukemia | BT-549 breast | DU-145 prostate | HS 578T breast | MCF7 breast | MDA-MB-231 breast | MDA-MB-435 | MDA-N | NCI/ADR-RES ovarian | PC-3 prostate | T-47D breast
> 100 µM: all other assays above

C[N+](C)(C)CC1CCCC/C1=N\OC(=O)c1ccccc1 (centres undefined)
not listed: A498 renal | HL-60(TB) leukemia | NCI-H226 lung | SK-MEL-2 melanoma | XF 498 CNS | BT-549 breast | DU-145 prostate | HS 578T breast | MCF7 breast | MDA-MB-231 breast | MDA-MB-435 | MDA-N | NCI/ADR-RES ovarian | PC-3 prostate | T-47D breast
> 100 µM: all other assays above

NC1=NC(=O)/C(=C/c2ccccc2[N+](=O)[O-])C(N)=N1
not listed: A498 renal | SF-268 CNS | BT-549 breast | DU-145 prostate | HS 578T breast | MCF7 breast | MDA-MB-231 breast | MDA-MB-435 | MDA-N | NCI/ADR-RES ovarian | PC-3 prostate | T-47D breast
> 100 µM: all other assays above

Cc1cc2nc(C(C)C(=O)c3ccc(Cl)cc3)c(=O)[nH]c2cc1C (centres undefined)
95.1 µM: NCI-H226 lung
40.4 µM: MDA-N
92.3 µM: 786-0 renal
97.6 µM: SR leukemia
49.6 µM: MDA-MB-435
64.3 µM: EKVX NSCLC
66.4 µM: HT29 colon
75.2 µM: TK-10 renal
53.7 µM: COLO 205 colon
93.1 µM: SF-539 CNS
33.1 µM: HCC-2998 colon
not listed: DLD-1 colon | DMS 273 small cell lung | HOP-18 NSCLC | KM20L2 colon | LXFL 529 NSCLC | RXF-631 renal | XF 498 CNS | DMS 114 small cell lung | M19-MEL melanoma | SNB-78 CNS
> 100 µM: all other assays above

C/C(CN1C(=O)c2ccccc2C1=O)=N\NS(=O)(=O)c1ccc(C)cc1
not listed: HOP-92 NSCLC | LOX IMVI melanoma | RXF 393 renal | RXF-631 renal | SF-268 CNS | SK-MEL-28 melanoma | XF 498 CNS | DMS 114 small cell lung | BT-549 breast | DU-145 prostate | HS 578T breast | MCF7 breast | MDA-MB-231 breast | MDA-MB-435 | MDA-N | NCI/ADR-RES ovarian | PC-3 prostate | T-47D breast
> 100 µM: all other assays above

C=C(CN(C)C)C(=O)c1ccccc1C
75.8 µM: DMS 273 small cell lung
45.8 µM: DLD-1 colon
> 75.6 µM: XF 498 CNS
17.6 µM: RXF 393 renal
> 60.8 µM: SF-539 CNS
30.7 µM: LXFL 529 NSCLC
33.1 µM: SW-620 colon
53.5 µM: M19-MEL melanoma
> 62.3 µM: UACC-62 melanoma
36 µM: MALME-3M melanoma
> 63.1 µM: HCT-15 colon
35.8 µM: 786-0 renal
47.2 µM: SR leukemia
62.4 µM: SK-MEL-28 melanoma
> 78.1 µM: SN12C renal
42.5 µM: DMS 114 small cell lung
48.6 µM: RPMI-8226 leukemia
> 69.2 µM: UO-31 renal
> 57.1 µM: HCT-116 colon
> 58.7 µM: OVCAR-3 ovarian
> 52.4 µM: HOP-18 NSCLC
33.3 µM: HOP-92 NSCLC
57.6 µM: ACHN renal
12.3 µM: NCI-H522 lung
62.6 µM: CAKI-1 renal
15.9 µM: HL-60(TB) leukemia
31.9 µM: COLO 205 colon
34.2 µM: CCRF-CEM leukemia
33.8 µM: M14 melanoma
35.7 µM: MOLT-4 leukemia
45.9 µM: K-562 leukemia
not listed: BT-549 breast | HS 578T breast | MCF7 breast | MDA-MB-231 breast | MDA-MB-435 | MDA-N | NCI/ADR-RES ovarian | PC-3 prostate | T-47D breast
> 100 µM: all other assays above

O=C1[C@@H]2C(c3ccccc3Br)=NO[C@@H]2C(=O)N1c1ccc(Cc2ccc(N3C(=O)[C@H]4C(c5ccccc5Br)=NO[C@H]4C3=O)cc2)cc1
not listed: NCI-H522 lung | SNB-19 CNS | HCT-116 colon | SR leukemia | BT-549 breast | DU-145 prostate | HS 578T breast | MCF7 breast | MDA-MB-231 breast | MDA-MB-435 | MDA-N | NCI/ADR-RES ovarian | PC-3 prostate | T-47D breast
> 100 µM: all other assays above
